Data as given in patent US20200333357A1, “NOVEL TFEB PATHWAY AGONISTS FOR METABOLIC DISEASES AND AGEING” (The Board of Regents of the University of Texas System, priority 2017, published 2020).
“Also recorded” adds a separate entry of the source. Counter-ions that a name gives are not always drawn.

Columns and labels:
[1] = test system: C57BL/6J mice fed a high-fat diet; test: High-fat diet mouse model for in vivo compound delivery; details: for known TFEB target genes mRNA in liver and muscle: HFD mice treated with AD or IKA (PEG-PLA nanoparticles i.v.); for high fat diet-induced steatosis (liver histology): 3 weeks, DG oral, AD and IKA i.v. in PEG-PLA nanoparticles; for body weight/composition and blood chemistry: AD 1 mg kg-1 or IKA 0.5 mg kg-1 in PEG-PLA nanoparticles i.v.; for expression of Ppargc1α, Ppar1α and Fgf21: liver
Experimental: Total RNA was isolated from MEFs or mouse tissues using RNeasy minipreps (QIAGEN). Complementary DNA (cDNA) was synthesized with the High capacity RNA-to-cDNA kit (Applied biosystems), and qRT-PCR was performed using TaqMan® Gene Expression Assays (Applied biosystems) for the indicated genes on the LightCycler System (Roche Applied Science). Gapdh was used to normalize RNA input. The mouse probes used in this study were: Tfeb (Mm00448968_m1), Ctsa (Mm00447197_m1), Mcoln 1 (Mm00522550_m1), Ppara (Mm00440939_m1), Ppargc1a (Mm01208835_m1), Fgf21 (Mm00840165_g1) and Gapdh (Mm99999915_g1), and the human probes used were TFEB (Hs00292981_m1), CTSA (Hs00264902_m1), MCOLN1 (Hs01100653_m1), PPARGC1A (Hs00173304_m1), PPARA (Hs00947536_m1), UVRAG (Hs01075434_m1), GAPDH (Hs02758991_g1) and p62/SQSTM1 (Hs01061917_g1). All probes were from Thermo Fisher Scientific Inc.
All mouse experiments were approved and carried out following the ethical guidelines established by the Institutional Animal Care and Use Committee at UT Southwestern Medical Center. The investigators were not blinded to allocation during experiments and outcome assessment. Four to six weeks old male C57BL/6J mice were randomly divided into groups fed a regular diet (Harlan Teklad) or a high-fat diet (HFD) containing 60% fat (Research Diets). After one month, the HFD mice were grouped so that the average body weights of mice in each group were similar. The grouped mice were orally administered DG (2.5 mg kg-1) or its solvent 50% HPβCD solution, or intravenously injected with AD (1 mg kg-1) or IKA (0.5 mg kg-1) encapsulated in the PEG-PLA nanoparticles or empty nanoparticles, three times a week for three weeks. Body weight and food intake were measured twice a week before treatment and every day after treatment in the middle of the light period. The cage tops containing food pellets were weighed, as well as the spilled food in the bottom of the cage. The food intake was corrected for spillage.
At the end of the treatment, the body composition of each mouse was analyzed by EchoMRI (Echo Medical Systems LLC) according to the manufacturer's instructions.
For glucose tolerance tests, the mice were orally administered 1 mg g-1 glucose (Sigma-Aldrich) after a 4 hr fast. For insulin tolerance tests, the mice were intraperitoneally injected with 0.75 milliunit g-1 insulin (Humulin R, Eli Lily) after a 4 hr fast. Blood was drawn from tail veins at indicated time points after injection. Experiments were performed during light period. Serum glucose levels were analyzed using commercial glucose reagents (Sigma).
At the end of the treatment, blood was collected from the orbital plexus under anesthesia. Serum was frozen in aliquots and stored at −20° C. for further analysis. Specific enzyme kits were used to detect serum levels of triglyceride (Fisher Scientific), cholesterol (Fisher Scientific) and glucose (Sigma-Aldrich).
Livers and other organs were dissected and embedded in OCT. Cryostat sections were cut at 10 μm. The sections were stored at −80° C. and subjected to haematoxylin/eosin and oil red O staining following standard protocol. The immunohistochemistry (IHC) staining of p62 was performed following the protocol of Cell Signaling Technology. The primary antibody was from Abcam, and the SignalStain® boost IHC detection reagent and DAB substrate kit were from Cell Signaling Technology. All the sections were imaged using a NanoZoomer 2.0-HT Digital slide scanner (Hamamatzu) and processed using NDP viewer software.

AMPK = AMPK and ACC phosphorylation immunoblots; assay type: cell-based, human; details: HeLa cells, dose-dependent
Experimental: (§1) SFIGS. […] (SFIG. 4B) Representative images of GFP-TFEB HeLa cells treated with 3.3 μM AD or in combination with 5 μM FK506, 10 μM CsA or both. […] Scale bar, 20 μm. […] Scale bar, 20 μm. […] Scale bar, 20 μm. (SFIGS. 4F-G) Immunoblots of wide-type HeLa cells treated with various doses (starting from 3.3 μM with a 3-fold dilution, and right-most lane is DMSO) of AD and IKA.

NFAT = test: Endogenous NFAT nuclear translocation; assay type: cell-based; details: high or intermediate doses
Experimental: as §1

TFEB = test: GFP-TFEB nuclear translocation (high-content screen, dose-response, confocal imaging); assay type: cell-based, human; details: for effect of calcineurin inhibition (FK506, CsA, siPPP3CB) on TFEB activation: 5 μM FK506, 10 μM CsA or siPPP3CB; for effect of Compound C (AMPK inhibitor) and STO-609 (CaMKKβ inhibitor) on induced TFEB nuclear translocation: 10 μM compound C, 25 μM STO-609, 4 hr; for effect of IP3R inhibitor Xestosporin C or siIP3R1 on induced TFEB nuclear translocation: 25 μM Xesto 1 hr pretreatment, time-dependent; for effect of GPN pretreatment (lysosomal Ca2+ depletion) on induced TFEB nuclear translocation: 200 μM GPN, 30 min pretreatment; for hit status in the TFEB screen overlapping with the autophagy (GFP-LC3) screen: compounds added for 4 hr, overlap with top 30 hits of autophagy screen; for effect of RNAi-mediated MCOLN1 depletion on induced TFEB nuclear translocation: siMCOLN1
Experimental: GFP-TFEB HeLa cells were seeded in 384-well plates. Compounds were added for 4 hr the following day. Bafilomycin A1 (250 nM) treated cells were used as positive controls and DMSO-treated cells as negative controls. […] Images were collected using 405 nm and 488 nm laser lines with DAPI and FITC emission filters. Images were analyzed using the GE IN Cell Analyzer Workstation software. Briefly, nuclei were segmented using the Hoechst channel and the cytoplasm was segmented using the GFP channel. For each cell, the mean GFP intensity in each compartment was measured and used to calculate the nuclear to cytoplasmic (N/C) TFEB-GFP ratio. The same method as mentioned above was used to generate the top 30 compounds with highest condensed activity values and robust Z score values.
GFP-TFEB HeLa cells treated with compounds or DMSO were fixed and stained with Hoechst. Images from at least 3 different fields per sample were acquired using a 40× objective on a Zeiss confocal microscope and analyzed with ImageJ. 20-30 cells were evaluated from each image for each sample, and 3 independent experiments were performed to generate the graphed values.

[2] = HFD mice, three times a week for three weeks
[3] = HFD mice, DG 2.5 mg kg-1 oral, three times a week for three weeks

Structure (SMILES): CCCCC(CC)CNC(=N)NC(=N)NCCCCCCNC(=N)NC(=N)NCC(CC)CCCC (stereo not shown) [AD, alexidine dihydrochloride]
- known TFEB target genes mRNA in liver and muscle [1]: upregulated in the liver rather than in the muscle
- high fat diet-induced steatosis (liver histology) ([1]; HFD mice): amelioration
- body weight/composition and blood chemistry [1, 2]: significant normalization
- expression of Ppargc1α, Ppar1α and Fgf21 ([1]; HFD mice): upregulation
- activating phosphorylation of AMPK and its substrate ACC (AMPK): induced activating phosphorylation
- nuclear translocation of NFAT (NFAT): induced dose-dependent nuclear translocation
- reversal of effect on TFEB by cell-permeable pyruvate (TFEB): reversed
- effect of calcineurin inhibition (FK506, CsA, siPPP3CB) on TFEB activation (TFEB): block TFEB activation
- effect of Compound C (AMPK inhibitor) and STO-609 (CaMKKβ inhibitor) on induced TFEB nuclear translocation (TFEB): inhibited
- effect of IP3R inhibitor Xestosporin C or siIP3R1 on induced TFEB nuclear translocation (TFEB): attenuated
- effect of GPN pretreatment (lysosomal Ca2+ depletion) on induced TFEB nuclear translocation (TFEB): sufficient to disrupt TFEB nuclear translocation
- hit status in the TFEB screen overlapping with the autophagy (GFP-LC3) screen (TFEB; dihydrochloride): top 18 hits; also recorded: top scoring hits
- effect of RNAi-mediated MCOLN1 depletion on induced TFEB nuclear translocation (TFEB): suppressed

Structure (SMILES): C[C@H]1O[C@@H](O[C@H]2[C@@H](O)C[C@H](O[C@H]3[C@@H](O)C[C@H](O[C@H]4CC[C@@]5(C)[C@H](CC[C@@H]6[C@@H]5C[C@@H](O)[C@]5(C)[C@@H](C7=CC(=O)OC7)CC[C@]65O)C4)O[C@@H]3C)O[C@@H]2C)C[C@H](O)[C@@H]1O [DG, digoxin, reference compound]
- high fat diet-induced steatosis (liver histology) ([1]; HFD mice): amelioration
- body composition [1, 3]: normalized
- body weight [1, 3]: normalized
- circulating cholesterol [1, 3]: normalized
- circulating glucose [1, 3]: normalized
- circulating insulin levels [1, 3]: normalized
- circulating triglycerides [1, 3]: normalized
- expression of Ppargc1α, Ppar1α and Fgf21 ([1]; HFD mice): upregulation
- activating phosphorylation of AMPK and its substrate ACC (AMPK): not
- nuclear translocation of NFAT (NFAT): not
- reversal of effect on TFEB by cell-permeable pyruvate (TFEB): not
- effect of Compound C (AMPK inhibitor) and STO-609 (CaMKKβ inhibitor) on induced TFEB nuclear translocation (TFEB): not
- effect of IP3R inhibitor Xestosporin C or siIP3R1 on induced TFEB nuclear translocation (TFEB): attenuated
- effect of GPN pretreatment (lysosomal Ca2+ depletion) on induced TFEB nuclear translocation (TFEB): sufficient to disrupt TFEB nuclear translocation
- effect of calcineurin perturbation on TFEB activation (TFEB; compound at EC50): inhibited to some extent
- effect of calcineurin perturbation on TFEB activation (TFEB; compound at EC90): resistant
- hit status in the TFEB screen overlapping with the autophagy (GFP-LC3) screen (TFEB): top 18 hits; also recorded: top scoring hits
- effect of RNAi-mediated MCOLN1 depletion on induced TFEB nuclear translocation (TFEB): suppressed

Structure (SMILES): CC[C@H]1[C@@H]2C=C[C@@H]3[C@H]4C/C=C\C(=O)NCCC[C@@H]5NC(=O)/C(=C(O)/C=C/[C@@H]4C[C@@H]3[C@H]2C[C@H]1C)C5=O [IKA, ikarugamycin]
- known TFEB target genes mRNA in liver and muscle [1]: upregulated in the liver rather than in the muscle
- high fat diet-induced steatosis (liver histology) ([1]; HFD mice): amelioration
- body weight/composition and blood chemistry [1, 2]: significant normalization
- expression of Ppargc1α, Ppar1α and Fgf21 ([1]; HFD mice): upregulation
- activating phosphorylation of AMPK and its substrate ACC (AMPK): induced activating phosphorylation
- nuclear translocation of NFAT (NFAT): not
- reversal of effect on TFEB by cell-permeable pyruvate (TFEB): reversed
- effect of thapsigargin (ER Ca2+ depletion) on induced TFEB nuclear translocation (TFEB; 300 nM TG, 30 min): selectively decreased
- effect of calcineurin inhibition (FK506, CsA, siPPP3CB) on TFEB activation (TFEB): calcineurin independent
- effect of Compound C (AMPK inhibitor) and STO-609 (CaMKKβ inhibitor) on induced TFEB nuclear translocation (TFEB): inhibited
- effect of IP3R inhibitor Xestosporin C or siIP3R1 on induced TFEB nuclear translocation (TFEB): attenuated
- effect of GPN pretreatment (lysosomal Ca2+ depletion) on induced TFEB nuclear translocation (TFEB): almost no effect
